Assays:
Nrf2-AR pathway = assay: Flow cytometry ARE-GFP reporter assay; format: cell-based, human
Method: (i) Transient transfection using TransIT-2020. Perform the transfection as described in Step 40 Option (C) (i). Briefly: Transfect the cells with ARE:GFP, pFN21a-Halo-Keap1, and pcDNA3.1 myc-Nrf2 in a 3:1:1 ratio by mass. For transient transfection of cells in a single well of a 48-well plate, in 26 μL of antibiotic-free, serum-free media add 156 ng of ARE:GFP, 52 ng of pFN21a-Halo-TEV-Keap1, and 52 ng of pcDNA3.1 myc-Nrf2 (260 ng total) followed by the addition of 0.78 μL of TransIT-2020. The lipoplex is mixed gently and incubated at room temperature for 20 min.
(iv) Treatment of cells with T-REX™ delivery photocaged precursor and photo-uncaging (TIMING: 7 hours). […]
In this flow cytometry assay, live cells are first gated by forward (size) and side scatter to give a general population of healthy cells (FIG. 26A). […] Analyzing this scatter group for green fluorescence (AR reporter) told a slightly different story to that painted by previous ensemble experiments (Parvez et al., “Substoichiometric Hydroxynonenylation of a Single Protein Recapitulates Whole-Cell-Stimulated Antioxidant Response,” J. Am. Chem. Soc. 137:10-13 (2015); Lin et al., “A Generalizable Platform for Interrogating Target- and Signal-Specific Consequences of Electrophilic Modifications in Redox-Dependent Cell Signaling,” J. Am. Chem. Soc. 137:6232-44 (2015), which are hereby incorporated by reference in their entirety).

HaloTag = assay: Reaction of purified recombinant HaloTag with HNE, in-gel fluorescence; format: biochemical; conditions: 0-16 equiv., 20-min incubation
Method: HEK293T cells expressing HaloTag alone treated under standard T-REX™ delivery conditions with Ht-PreHNE were exposed to UV light (0.3 mW/cm^2, 365 nm) for the indicated time periods at which point the cells were harvested, lysed, and subjected to Click coupling and in-gel fluorescence analysis followed by western blot. Error bars designate SD (N=3). […] Purified recombinant HaloTag was treated with either the photocaged precursor Ht-PreHNE (FIG. 17, inset, and FIG. 29) (2 equiv., lane a, positive control), or directly with reactive electrophile HNE (FIG. 29) (0, 2, 4, 8, 16 equiv., lane b, c, d, e, f, respectively). After 20-min incubation, the samples were analyzed by in-gel fluorescence. M, molecular weight ladder.

[1] = system: ten HaloTag proteins in HEK-293 cells; assay: T-REX gel-based screen of Halo ORF clones for HNE-sensitive targets; format: cell-based
Method: Individual wells in a 48-well plate contained live HEK-293 cells ectopically expressing a unique HaloTagged gene of interest. The cells were subjected to T-REX™ delivery-HNE(alkyne) targeting on demand. Post cell lysis, all samples were treated with TEV protease and subsequently subjected to Click coupling reaction with Cy5 azide. Probing with Halo antibody allowed evaluation of expression level (and/or solubility under the lysis conditions used). […] For example, RRM1, PRKCD, p53R2, and Keap1 (positive control) had roughly similar expression levels. Only RRM1 and Keap1 were HNE-sensitive although all four targets have been previously identified to be potentially redox/HNE-sensitive (Holmstrom et al., “Cellular Mechanisms and Physiological Consequences of Redox-Dependent Signalling,” Nat. Rev. Mol. Cell. Biol. 15:411-21 (2014); Jacobs et al., “Systems Analysis of Protein Modification and Cellular Responses Induced by Electrophile Stress,” Acc. Chem. Res. 43:673-83 (2010); Delmastro-Greenwood et al., “Redox-Dependent Anti-Inflammatory Signaling Actions of Unsaturated Fatty Acids,” Annu. Rev. Physiol. 76:79-105 (2014); Crunkhorn S., “Deal Watch: Abbott Boosts Investment in NRF2 Activators for Reducing Oxidative Stress,” Nat. Rev. Drug Discov. […]

CCCCCC(O)/C=C/C=O (stereo not shown) [HNE, 4-hydroxynonenal]
AR-driven GFP signal (Nrf2-AR pathway; T-REX delivery on Halo-Keap1): increase in AR in all but cells with the highest basal AR
AR-driven GFP signal (Nrf2-AR pathway; whole-cell HNE treatment): strongly increases AR in a subset of cells
reaction of HaloTag with HNE (HaloTag): does not react
proteins modified by HNE in the screen besides positive control Keap1 [1]: RRM1 and HSPB7

— patent publication US11506670B2, “Method of genome-wide direct identification of electrophile-sensing targets” (Cornell University, priority 2018, dated 2022)
